Assay results as given in patent US20220273683A1, “BORON-CONTAINING SMALL MOLECULES” (Bill & Melinda Gates Foundation, priority 2016, published 2022).
Converted amounts (≈) assume the structure as drawn.

Columns and labels:
Type in all cases: cell-based
[1] = tested on: Staphylococcus aureus, MRSA (ATCC 33591); assay: Antibacterial MIC assay (microbroth dilution, CLSI); settings: 35° C., 16-20 hours; for MIC: Staphylococcus aureus
How it was run: (§1)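 Microbroth dilution per CLSI M07-A10/M100-S25 in cation-adjusted Mueller-Hinton broth, with 3% lysed horse blood added for S. pneumoniae. Inoculum from a 0.5 McFarland direct colony suspension, diluted to 5×10^5 CFU/mL in the well. Compounds were 2-fold serially diluted; MIC read against a growth control.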

[2] = tested on: Streptococcus pneumoniae (ATCC 49619); assay: as above; settings: 35° C., 16-20 hours; for MIC Streptococcus pneumoniae (ATCC 49619): 3% lysed horse blood; for MIC: Streptococcus pneumoniae, ATCC49619, 3% lysed horse blood
How it was run: as §1

[3] = tested on: Wolbachia pipientis in C6/36 cell line; assay: Anti-Wolbachia high-content assay; settings: C6/36 (wAlbB) cells, 7 days at 26° C., 50% reduction of Wolbachia
Description: C6/36 cells (ECACC #89051705, derived from Aedes albopictus larvae) were infected with Wolbachia pipientis derived from the supernatant of cultured A. albopictus Aa23 cells to create a stably Wolbachia-infected cell line C6/36 (wAlbB). This cell line was subpassaged 6-8 days prior to plating out at a density of 2000 viable cells per well in a 384-well CellCarrier plate suspended in Liebovitz media supplemented with 20% fetal bovine serum, 2% tryptose phosphate broth and 1% non-essential amino acids. Compounds were dissolved and diluted in DMSO, and compound solution was added to each well to provide a final DMSO concentration <1% and a total volume of 100 μL per well. Following 7 days of sterile incubation at 26° C., staining media containing SYTO 11 DNA dye was added to each well. After 15 minutes, all media was removed from each well and fresh media (no stain) was added. Imaging of each well was accomplished using a Perkin Elmer Operetta high-content imaging system. Five fields per well were imaged using a confocal 60× objective with the Fluorescein filter (excitation filter: 460-490 nm; emission filter: 500-550 nm). Images were analyzed using the Perkin Elmer Harmony software to score each intact cell on the basis of texture complexity of the cytoplasm. Full details can be found in: […]. Biomol. Screening, 2015, 20, […]. Compound sample wells were analyzed and normalized (along with the positive controls) against the vehicle (untreated) control to give a percentage reduction of Wolbachia-infected cells. Using the cell number analysis, compounds with a host cell number amounting to less than 50% of the vehicle control were classified as toxic and retested at a reduced compound concentration. Dose-response curves were generated with percentage reduction of Wolbachia-infected cells versus compound concentration, using 5-10 compound serial dilutions. Data were analyzed and compound EC50 is determined using a 4 parameter logistic nonlinear regression model.

| MIC Staphylococcus aureus, MRSA (ATCC 33591) [1] | MIC Streptococcus pneumoniae (ATCC 49619) [2] | EC50 [3] | Compound | MIC [1] | MIC [2] | EC50 ([3]; Wolbachia pipientis) |
| --- | --- | --- | --- | --- | --- | --- |
| B (0.5-2 is B) | C (4-32 is C) | > 1000 nM | C[C@@H]1CC[C@@]23CCC(=O)[C@H]2[C@]1(C)[C@H](OC(=O)COc1ccc2c(c1F)B(O)OC2)C[C@@]1(C)CCC(=O)O[C@H]1[C@@H]3C [Compound 1, (4aR,6R,7R,7aR,10aS,11R,11aS,14R)-4a,7,11,14-tetramethyl-2,8-dioxododecahydro-2H-7,10a-propanocyclopenta[6,7]cycloocta[1,2-b]pyran-6-yl2-((7-fluoro-1-hydroxy-1,3-dihydrobenzo[c][1,2]oxaborol-6-yl)oxy)acetate] | – | – | – |
| – | – | – | C[C@@H]1CC[C@@]23CCC(=O)[C@H]2[C@]1(C)[C@H](OC(=O)COc1ccc2c(c1F)B(O)OC2)C[C@@](C)(/C=C/C(=O)O)[C@@H](O)C3 [Compound 13, (E)-3-((3aR,4R,5R,7S,8S,9aS,12R)-5-(2-((7-fluoro-1-hydroxy-1,3-dihydrobenzo[c][1,2]oxaborol-6-yl)oxy)acetoxy)-8-hydroxy-4,7,12-trimethyl-3-oxodecahydro-4,9a-propanocyclopenta[8]annulen-7-yl)acrylic acid] | 4 to 32 µg/mL (≈ 7.16 to 57.3 µM) | > 64 µg/mL | > 1000 nM |
| – | – | – | COC(=O)/C=C/[C@]1(C)C[C@@H](OC(=O)COc2ccc3c(c2F)B(O)OC3)[C@]2(C)[C@H](C)CC[C@]3(CCC(=O)[C@H]32)[C@@H](C)[C@@H]1O [Compound 12, methyl (E)-3-((3aR,4R,5R,7S,8S,9R,9aS,12R)-5-(2-((7-fluoro-1-hydroxy-1,3-dihydrobenzo[c][1,2]oxaborol-6-yl)oxy)acetoxy)-8-hydroxy-4,7,9,12-tetramethyl-3-oxodecahydro-4,9a-propanocyclopenta[8]annulen-7-yl)acrylate] | < 0.25 µg/mL | < 0.25 µg/mL | 81 nM |
| C (4-32 is C) | C (4-32 is C) | > 1000 nM | C[C@@H]1CC[C@@]23CCC(=O)[C@H]2[C@]1(C)[C@H](OC(=O)COc1ccc2c(c1F)B(O)OC2)C[C@@](C)(CCC(N)=O)[C@@H](O)[C@@H]3C [Compound 2, (3aR,4R,5R,7R,8S,9R,9aS,12R)-7-(3-amino-3-oxopropyl)-8-hydroxy-4,7,9,12-tetramethyl-3-oxodecahydro-4,9a-propanocyclopenta[8]annulen-5-yl2-((7-fluoro-1-hydroxy-1,3-dihydrobenzo[c][1,2]oxaborol-6-yl)oxy)acetate] | – | – | – |
| B (0.5-2 is B) | B (0.5-2 is B) | > 1000 nM | CNC(=O)CC[C@]1(C)C[C@@H](OC(=O)COc2ccc3c(c2F)B(O)OC3)[C@]2(C)[C@H](C)CC[C@]3(CCC(=O)[C@H]32)[C@@H](C)[C@@H]1O [Compound 3, (3aR,4R,5R,7R,8S,9R,9aS,12R)-8-hydroxy-4,7,9,12-tetramethyl-7-(3-(methylamino)-3-oxopropyl)-3-oxodecahydro-4,9a-propanocyclopenta[8]annulen-5-yl2-((7-fluoro-1-hydroxy-1,3-dihydrobenzo[c][1,2]oxaborol-6-yl)oxy)acetate] | – | – | – |
| B (0.5-2 is B) | B (0.5-2 is B) | 305 nM | CCCCNC(=O)CC[C@]1(C)C[C@@H](OC(=O)COc2ccc3c(c2F)B(O)OC3)[C@]2(C)[C@H](C)CC[C@]3(CCC(=O)[C@H]32)[C@@H](C)[C@@H]1O [Compound 5, (3aR,4R,5R,7R,8S,9R,9aS,12R)-7-(3-(butylamino)-3-oxopropyl)-8-hydroxy-4,7,9,12-tetramethyl-3-oxodecahydro-4,9a-propanocyclopenta[8]annulen-5-yl2-((7-fluoro-1-hydroxy-1,3-dihydrobenzo[c][1,2]oxaborol-6-yl)oxy)acetate] | – | – | – |
| D (≥64 is D) | D (≥64 is D) | > 1000 nM | CNC[C@H](O)[C@]1(C)C[C@@H](OC(=O)COc2ccc3c(c2F)B(O)OC3)[C@]2(C)[C@H](C)CC[C@]3(CCC(=O)[C@H]32)[C@@H](C)[C@@H]1O [Compound 28, (3aR,4R,5R,7R,8S,9R,9aS,12R)-8-hydroxy-7-((R)-1-hydroxy-2-(methylamino)ethyl)-4,7,9,12-tetramethyl-3-oxodecahydro-4,9a-propanocyclopenta[8]annulen-5-yl2-((7-fluoro-1-hydroxy-1,3-dihydrobenzo[c][1,2]oxaborol-6-yl)oxy)acetate] | – | – | – |
| B (0.5-2 is B) | B (0.5-2 is B) | 283 nM | CCNC(=O)CC[C@]1(C)C[C@@H](OC(=O)COc2ccc3c(c2F)B(O)OC3)[C@]2(C)[C@H](C)CC[C@]3(CCC(=O)[C@H]32)[C@@H](C)[C@@H]1O [Compound 4, (3aR,4R,5R,7R,8S,9R,9aS,12R)-7-(3-(ethylamino)-3-oxopropyl)-8-hydroxy-4,7,9,12-tetramethyl-3-oxodecahydro-4,9a-propanocyclopenta[8]annulen-5-yl2-((7-fluoro-1-hydroxy-1,3-dihydrobenzo[c][1,2]oxaborol-6-yl)oxy)acetate] | – | – | – |
| C (4-32 is C) | D (≥64 is D) | > 1000 nM | C[C@@H]1CC[C@@]23CCC(=O)[C@H]2[C@]1(C)[C@H](OC(=O)COc1ccc2c(c1F)B(O)OC2)C[C@@](C)(CNS(C)(=O)=O)[C@@H](OS(C)(=O)=O)[C@@H]3C [Compound 49, (3aR,4R,5R,7S,8S,9R,9aS,12R)-4,7,9,12-tetramethyl-7-(methylsulfonamidomethyl)-8-((methylsulfonyl)oxy)-3-oxodecahydro-4,9a-propanocyclopenta[8]annulen-5-yl2-((7-fluoro-1-hydroxy-1,3-dihydrobenzo[c][1,2]oxaborol-6-yl)oxy)acetate] | – | – | – |
